Results published in US7115750B1, “Melanin concentrating hormone antagonist” (Takeda Pharmaceutical Company Limited, priority 1999, dated 2006).

System: not given
Assay: not given
Conditions: not given
Work on `CN(C)CC1CCc2cc(NC(=O)c3ccc(-c4ccccc4)cc3)ccc2C1.Cl` (stereo not drawn) [Reference Example 25, N-[2-(N,N-Dimethylamino)methyl-6-tetralinyl]-4-biphenylylcarboxamide hydrochloride] yielded a melting point greater than 250 °C.
Compound `CN(C)CCNC(=O)Cc1ccc(NC(=O)c2ccc(OCc3ccc(-c4ccccc4)cc3)cc2)cc1` [Example 191, 4-([1,1′-Biphenyl]-4-ylmethoxy)-N-[4-[2-[[2-(dimethylamino)ethyl]amino]-2-oxoethyl]phenyl]benzamide] has a melting point of 204 to 208 °C.
`Cc1ccc(C2CCN(C(=O)Nc3ccc4c(c3)CCC(CN3CCCC3)=C4)CC2)cc1` [Example 155, 4-(4-Methylphenyl)-N-[6-(1-pyrrolidinylmethyl)-7,8-dihydro-2-naphthalenyl]-1-piperidinecarboxamide] gave a melting point of 197 to 198 °C.
Work on `Cc1ccc(C2CCN(C(=O)Nc3ccc4c(c3)CCC(CN(C)C)=C4)CC2)cc1` [Example 167, N-[6-[(Dimethylamino)methyl]-7,8-dihydro-2-naphthalenyl]-4-(4-methylphenyl)-1-piperidinecarboxamide] yielded a melting point of 200 to 202 °C.
In the case of `O=C(Nc1ccc2c(c1)CCC(CN1CCCC1)=C2)c1ccc(-c2ccc(F)cc2)cc1` [Example 95, 4′-Fluoro-N-[6-(1-pyrrolidinylmethyl)-7,8-dihydro-2-naphthalenyl][1,1′-biphenyl]-4-carboxamide], the melting point is reported as 189 to 192 °C.
Compound `O=C(Nc1ccc2c(c1)CCC(CCN1CCCC1)=C2)c1ccc(-c2ccc(Cl)cc2)cc1` [Example 206, 4′-Chloro-N-[6-[2-(1-pyrrolidinyl)ethyl]-7,8-dihydro-2-naphthalenyl][1,1′-biphenyl]-4-carboxamide] has a melting point of 207 to 209 °C.
With `CC1=C(CN(C)C)CCc2cc(NC(=O)c3ccc(-c4ccc(Cl)cc4)cc3)ccc21` [Example 111, 4′-Chloro-N-[6-[(dimethylamino)methyl]-5-methyl-7,8-dihydro-2-naphthalenyl][1,1′-biphenyl]-4-carboxamide] the melting point was 199 to 204 °C.
With `CN(C)CC1Cc2ccc(NC(=O)c3ccc(-c4ccc(Cl)cc4)cc3)cc2C1` (stereo not drawn) [Example 43, 4′-Chloro-N-[2-[(dimethylamino)methyl]-2,3-dihydro-1H-inden-5-yl][1,1′-biphenyl]-4-carboxamide] the melting point was 192 to 194 °C.
`O=C(Nc1ccc2c(c1)CCC(CN1CCCC1)=C2)N1CC=C(c2ccc(F)cc2)CC1` [Example 158] gave a melting point of 206 to 207 °C.
With `CN(C)CC1CCc2cc(NC(=O)c3ccc(-c4ccc(C=O)cc4)cc3)ccc2C1` (stereo not drawn) [Example 20, N-[6-[(N,N-Dimethylamino)methyl]-5,6,7,8-tetrahydro-2-naphthalenyl]-4′-formyl[1,1′-biphenyl]-4-carboxamide] the melting point was 130 to 132 °C.
In the case of `Cc1cc(-c2ccncc2)c(C(=O)Nc2ccc(CC(=O)NCCN(C)C)cc2)[nH]1` [Example 197, N-[4-[2-[[2-(Dimethylamino)ethyl]amino]-2-oxoethyl]phenyl]-5-methyl-3-(4-pyridinyl)-1H-pyyrole-2-carboxamide], the melting point is reported as 215 to 218 °C (dec.).
Compound `O=C(Nc1ccc2c(c1)CCC(CCN1CCCC1)=C2)c1ccc(-c2ccc(F)cc2)cc1` [Example 205, 4′-Fluoro-N-[6-[2-(1-pyrrolidinyl)ethyl]-7,8-dihydro-2-naphthalenyl][1,1′-biphenyl]-4-carboxamide] has a melting point of 187 to 189 °C.
`CN(C)CC1CCc2cc(NC(=O)c3ccc(-c4ccc(N(C)C)cc4)cc3)ccc2C1` (stereo not drawn) [Example 37, 4′-(N,N-Dimethylamino)-N-[6-[(N,N-dimethylamino)methyl]-5,6,7,8-tetrahydro-2-naphthalenyl][1,1′-biphenyl)-4-carboxamide] gave a melting point of 212 to 213 °C.
In the case of `CN(C)CC1CCc2cc(NC(=O)c3ccc(-c4ccc(C5=NC(C)(C)CO5)cc4)cc3)ccc2C1` (stereo not drawn) [Example 32, N-[6-[(N,N-Dimethylamino)methyl]-5,6,7,8-tetrahydro-2-naphthalenyl]-4′-(4,4-dimethyl-4,5-dihydro-1,3-oxazole 2-yl)[1,1′-biphenyl]-4-carboxamide], the melting point is reported as 185 to 187 °C.
With `CC(C)CC1=C(CN(C)C)CCc2cc(NC(=O)c3ccc(-c4ccc(Cl)cc4)cc3)ccc21` [Example 113, 4′-Chloro-N-(6-[(dimethylamino)methyl)-5-isobutyl-7,8-dihydro-2-naphthalenyl][1,1′-biphenyl]-4-carboxamide] the melting point was 159 to 162 °C.
`CN(C)CC1CCc2cc(NC(=O)c3ccc(-c4ccc(NC(=O)C(F)(F)F)cc4)cc3)ccc2C1` (stereo not drawn) [Example 31, N-[6-[(N,N-Dimethylamino)methyl]-5,6,7,8-tetrahydro-2-naphthalenyl]-4′-[(trifluoroacetyl)amino][1,1′-biphenyl]-4-carboxamide] showed a melting point of 235 to 237 °C.

Target: SLC-1 expressing CHO cell membrane fractions (MCH receptor) (UniProt Q99705)
Assay: Determination of antagonist activity using GTPgS binding assay
Assay type: biochemical, human and rat (not specified for the table)
Conditions: [35S]-GTPγS binding stimulated by MCH, SLC-1 expressing CHO cell membrane 20 μg/ml, 1 hour; read-out: Inhibition Activity (IC50 value: nM)
Description: Membrane fraction was prepared by the following method, using the human SLC-1 expressing CHO cell clone 57 obtained in Reference Example 1-10, and the rat SLC-1 expressing CHO cell clone 44 obtained in Reference Example 1-4.
The human and rat SLC-1 expressing CHO cells (1×10^8) were scraped in buffer saline phosphate (pH 7.4) to which 5 mM EDTA (ethylenediaminetetraacetic acid) had been added, and centrifuged. 10 ml of homogenized buffer (10 mM NaHCO3, 5 mM EDTA, pH 7.5) was added to the cell pellets, and they were homogenized using a Polytron homogenizer. […]
After this reaction mixture was allowed to react for 1 hour under stirring, it was filtered under vacuum using a glass filter (GF-C), then the filter was washed 3 times with 300 μl of washing solution (50 mM Tris-HCl buffer solution pH 7.5). […] of liquid scintillator was added to the glass filter, and residual radioactivity was determined using a liquid scintillation counter.
The IC50 value of the compound was calculated from the binding inhibition rate (%), based on the definition that the binding inhibition rate (%)=(radioactivity when compound and MCH were added−radioactivity when DMSO solution was added)/(radioactivity when MCH was added−radioactivity when DMSO solution was added)×100.
In the case of `COc1ccc(-c2ccc(C(=O)Nc3ccc4c(c3)CCC(CN(C)C)C4)cc2)cc1` (stereo not drawn) [Example 1, N-[2-(N,N-Dimethylamino)methyl-6-tetralinyl]-(4′-methoxybiphenyl-4-yl)carboxamide], the IC50 is reported as 40 nM.
With `CN(C)CC1CCc2cc(NC(=O)c3ccc(-c4ccccc4)cc3)ccc2C1.Cl` (stereo not drawn) [Reference Example 25, N-[2-(N,N-Dimethylamino)methyl-6-tetralinyl]-4-biphenylylcarboxamide hydrochloride] the IC50 was 90 nM.
